Experimental data taken from publication PMC6736360, “P-Glycoprotein–Mediated Efflux Reduces the In Vivo Efficacy of a Therapeutic Targeting the Gastrointestinal Parasite Cryptosporidium” (The Journal of Infectious Diseases, 2019).
In brackets after ≈: the same amount, converted by molar mass. Entries after “also recorded” stand apart in the source; their conditions may differ. Where two headings read alike, the source gives them in different places.

Key:
[1] = system: Cryptosporidium; set-up: method as in PMID 28329187; conditions: cited from earlier work
[2] = Caco-2 trans-well apparent permeability assay; type: in vitro ADME; conditions: human, Caco-2, 5 µM, pH 7.4
Protocol: To initially characterize the permeability of BKIs 1294, 1369, and 1318, the software MedChem Designer (Simulations +, Lancaster, CA) was used to predict the Peff. The in vitro apparent permeability (Papp) was carried out by Absorption Systems LP (Exton, PA) with a Caco-2 trans-well assay. Caco-2 cells (clone C2BBe1) were obtained from American Type Culture Collection (Manassas, VA) were grown to confluence on collagen-coated, microporous membranes in 12-well assay plates. The permeability assay buffer was Hanks’ balanced salt solution (HBSS) containing 10 mM HEPES and 15 mM glucose at a pH of 7.4. The buffer in the receiver chamber also contained 1% bovine serum albumin. The dosing solution concentration was 5 µM BKI in assay buffer, and the cell monolayers were dosed on the apical side (A?B) or basolateral side (B?A) and incubated at 37°C with 5% CO2 in a humidified incubator. After 120 minutes, samples were taken from the donor and receiver chambers in duplicate. The Papp was calculated with equation (1) and the percent recovery with equation (2).
Papp = (dCr/dt) × Vr/(A × CA) (1)
Percent Recovery = 100 × ((Vr × Cr^final) + (Vd × Cd^final))/(Vd × […]) (2)
where dCr/dt is the slope of the cumulative concentration in the receiver compartment versus time in µM s^-1; Vr is the volume of the receiver compartment in cm^3; Vd is the volume of the donor compartment in cm^3; A is the area of the insert (1.13 cm^2 for 12-well); CA is the average of the nominal dosing concentration and the measured 120 minute donor concentration in µM; CN is the nominal concentration of the dosing solution in µM; Cr^final is the cumulative receiver concentration in µM at the end of the incubation period; Cd^final is the concentration of the donor in µM at the end of the incubation period.
(§1) To ensure no damage was inflicted to the cell monolayers during the flux period, lucifer yellow flux was also measured post-experimentally for each monolayer. To determine whether BKIs 1294, 1369, and 1318 were substrates of P-gp in vitro, P-gp efflux was characterized using the Caco-2 permeability assay protocol with a few modifications. The dosing solution concentration was 5 μM of BKI in the assay buffer +/- 1 μM valspodar. Cells were first pre-incubated for 30 minutes with HBSS containing +/- 1 μM valspodar. Cell monolayers were dosed on the apical side (A?B) or basolateral side (B?A), and incubated at 37°C with 5% CO2 in a humidified incubator. Samples were taken from the donor and receiver chambers at 120 minutes. Each determination was performed in duplicate.

[3] = Mouse oral plasma pharmacokinetics with or without elacridar; type: in vivo, mice; conditions: for AUC(0-inf) / Cmax / Tmax: mouse, plasma, po, mouse plasma, oral, 1369 60 mg/kg, 1318 50 mg/kg
Protocol: Mouse oral pharmacokinetic (PK) studies were performed as previously described^1. Briefly, blood samples were taken by tail bleeding into heparinized tubes at designated time points and centrifuged to obtain plasma. The samples were frozen and stored at -20°C until extraction and analysis. PK calculations of Tmax, Cmax, AUC, oral clearance, and half-life were performed using Pharsight Phoenix WinNonlin software (Certara, St. Louis, MO).

[4] = In vitro solubility at pH 2 and 6.5; type: physicochemical
Protocol: Figure 1. Structures, in vitro efficacy, and physicochemical properties of bumped kinase inhibitors (BKIs). […] Solubilities for each BKI were measured at pH 2 and 6.5, to represent the stomach and small intestinal environments, respectively. The human effective permeability (Peff) was predicted as described in Materials and Methods.

[5] = target: T1, P-gp (Homo sapiens, UniProt P08183); test: Caco-2 P-gp efflux assay +/- valspodar; type: in vitro ADME; conditions: for P-gp Substrate Classification: Caco-2
T1 construct: endogenous in cells; host or cells: Caco-2 cells (clone C2BBe1, ATCC); assay run by Absorption Systems LP
T1 sequence (P08183 whole entry): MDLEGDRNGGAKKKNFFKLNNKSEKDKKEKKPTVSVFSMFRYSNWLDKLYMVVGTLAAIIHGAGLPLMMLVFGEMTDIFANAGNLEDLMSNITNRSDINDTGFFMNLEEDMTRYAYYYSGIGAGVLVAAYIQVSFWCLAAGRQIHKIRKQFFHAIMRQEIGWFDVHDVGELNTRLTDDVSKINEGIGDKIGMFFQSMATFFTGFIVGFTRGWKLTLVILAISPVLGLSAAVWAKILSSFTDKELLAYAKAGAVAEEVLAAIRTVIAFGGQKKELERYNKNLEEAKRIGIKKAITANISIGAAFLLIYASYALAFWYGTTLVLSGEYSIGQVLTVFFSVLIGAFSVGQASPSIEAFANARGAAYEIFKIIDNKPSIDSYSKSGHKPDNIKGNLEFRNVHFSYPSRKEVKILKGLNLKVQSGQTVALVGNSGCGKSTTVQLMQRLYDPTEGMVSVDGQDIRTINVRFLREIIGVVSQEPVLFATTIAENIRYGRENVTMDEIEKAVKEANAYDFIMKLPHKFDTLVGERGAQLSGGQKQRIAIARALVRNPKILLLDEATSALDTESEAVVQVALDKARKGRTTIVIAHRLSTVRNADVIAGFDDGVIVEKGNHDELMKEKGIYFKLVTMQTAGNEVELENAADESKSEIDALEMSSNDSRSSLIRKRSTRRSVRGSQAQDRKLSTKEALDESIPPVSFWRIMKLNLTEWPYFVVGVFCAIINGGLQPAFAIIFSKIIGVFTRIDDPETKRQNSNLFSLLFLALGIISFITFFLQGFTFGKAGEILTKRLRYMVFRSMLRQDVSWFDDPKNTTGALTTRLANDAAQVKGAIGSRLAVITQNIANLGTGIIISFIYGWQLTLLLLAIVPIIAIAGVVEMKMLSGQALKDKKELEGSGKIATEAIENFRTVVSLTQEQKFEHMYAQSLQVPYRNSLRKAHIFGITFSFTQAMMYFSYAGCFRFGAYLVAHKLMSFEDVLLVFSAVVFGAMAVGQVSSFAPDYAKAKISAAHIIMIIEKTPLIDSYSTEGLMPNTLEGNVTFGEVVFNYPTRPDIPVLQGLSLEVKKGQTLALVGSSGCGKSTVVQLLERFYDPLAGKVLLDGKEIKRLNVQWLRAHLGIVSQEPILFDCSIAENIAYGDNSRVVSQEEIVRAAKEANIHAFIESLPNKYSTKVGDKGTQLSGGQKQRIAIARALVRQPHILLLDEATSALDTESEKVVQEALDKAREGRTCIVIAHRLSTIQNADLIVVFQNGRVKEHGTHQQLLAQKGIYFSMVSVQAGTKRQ
Excerpt: Given the well-known role of P-gp in the efflux of many diverse drugs, the adenosine triphosphate–binding cassette (ABC) transporter was specifically chosen for initial studies, to identify the transporter responsible for BKI1318’s relatively low Papp. A Caco-2 system with overexpression of P-gp was used to verify the role of P-gp in BKI1318 transport (Supplementary Table 2). […] It should be noted that this experiment characterized the importance of P-gp with a single concentration of BKI1318. The kinetics of BKI1318 transport mediated by P-gp are still unknown, and it is not clear how the fraction of absorption mediated by P-gp transport will change with different concentrations of BKI1318.
as §1

[6] = system: C. parvum; test: IFN-γ KO mouse model of Cryptosporidium infection; type: in vivo, mice; conditions: for Effect of elacridar coadministration on in vivo efficacy: IFN-γ KO mice, once daily for 5 days
Protocol: Efficacy in female IFN-γ KO mice (B6.129S7-Ifngtm1Ts/J; Jackson Laboratories) aged 8–10 weeks was evaluated as previously described. Beginning on day 6 after infection, mice were dosed with 30 mg/kg BKI1318 suspended in 0.2 mL of vehicle, 15 mg/kg elacridar in 0.1 mL of vehicle followed 15 minutes later by 30 mg/kg BKI1318 in 0.1 mL of vehicle, or 0.2 mL of vehicle only once daily for 5 days. Fecal specimens were collected daily from each group and weighed. Each fecal sample was checked for luminescence on the day of collection, and the number of relative light units was determined and normalized to fecal sample weights.

[7] = 30 mg/kg elacridar 15 minutes before, read-out: AUC0-inf w/ Elacridar
[8] = 30 mg/kg elacridar 15 minutes before, read-out: Cmax w/ Elacridar
[9] = 30 mg/kg elacridar 15 minutes before, read-out: Tmax w/ Elacridar
[10] = pH 2, represents stomach, read-out: Solubility (pH 2)
[11] = mice, 50 mg/kg oral, 30 mg/kg elacridar, P < .05

| Papp A→B at 120 min, 5 µM [2] [×10⁻⁶ cm/s] | Papp B→A at 120 min, 5 µM [2] [×10⁻⁶ cm/s] | AUC(0-inf) [3, 7] [µM·h] | Cmax [3, 8] [nM] | Tmax [3, 9] [h] | AUC(0-inf) ([3]; alone, read-out: AUC0-inf) [µM·h] | Cmax ([3]; alone, read-out: Cmax) [nM] | Tmax ([3]; alone, read-out: Tmax) [h] | solubility [4, 10] [µM] | P-gp Substrate Classification [5] | Structure (SMILES) | Efficacy in neonatal mouse model of Cryptosporidium infection [1] | Effect of elacridar coadministration on in vivo efficacy [6] | further results |
| --- | --- | --- | --- | --- | --- | --- | --- | --- | --- | --- | --- | --- | --- |
| 12.4 | 32.7 | 91.4 ± 5 | 4100 ± 300 | 4 ± 1.6 | 75.6 ± 8.9 | 4200 | 2 | > 100 | Negative | CCOc1ccc2cc(-c3nn(CC4CCN(C)CC4)c4ncnc(N)c34)ccc2n1 [BKI1369] | efficacious | no effect; also recorded: did not affect | Change in plasma pharmacokinetics when elacridar administered before ([3]; mice, 60 mg/kg oral, 30 mg/kg elacridar): not a significant change; also recorded: not significantly different |
| 0.29 | 20.3 | 12 ± 1.6 | 1800 | 2 | 6.6 ± 1.7 | 1000 | 2.3 | > 100 | Positive | CCOc1ccc2cc(-c3nn(CC4CCNCC4)c4ncnc(N)c34)ccc2n1 [BKI1318] | efficacious | increased the level by which BKI1318 reduced the Cryptosporidium burden; also recorded: improvement in efficacy | efflux ratio at 120 min, 5 µM [2]: 69; Oral clearance with elacridar, fold greater than observed for BKI1369 ([3]; mice): 5 fold; Oral clearance (clearance/bioavailability) with elacridar coadministration ([3]; mice, 50 mg/kg oral, 30 mg/kg elacridar): 207 mL/h; Increase of plasma AUC0–∞ by elacridar coadministration [3, 11]: approximately 2 fold; Increase of plasma Cmax by elacridar coadministration [3, 11]: approximately 2 fold; solubility ([4]; pH 6.5, represents small intestine, read-out: Solubility (pH 6.5)): 56 µM (≈ 22.6 µg/mL); efflux ratio at 120 min, 5 µM ([5]; human, pH 7.4, Caco-2 with overexpression of P-gp, 5 μM, no inhibitor): 19; Reduction in C. parvum oocyst excretion ([6]; 60 mg/kg once daily for 5 days, without elacridar): < 1 log |
